The record followed here is US10722575B2, “Use of 1,3-diphenylprop-2-en-1-one derivatives for treating liver disorders” (GENFIT, priority 2009, dated 2020).

Marks after values point to notes of the source that are not given here.

For test [1], the system named is human primary hepatic stellate cells (hHSC). Kind of test: TGFβ1-induced hHSC activation, gene expression by quantitative PCR. The format is cell-based. As to conditions: 10 μM, TGFβ1 1 ng/ml, 24 hours. The procedure: (§1) Compounds were dissolved in dimethyl sulfoxide (DMSO, Fluka cat #41640)
(§2) The human primary hepatic stellate cells (hHSC) (ScienCell) were cultured in STeCM medium (ScienCell cat #5301) that was supplemented with 2% fetal bovine serum (FBS, ScienCell cat #0010), 1% penicillin/streptomycine (ScienCell cat #0503) and stellate cell growth supplement (SteCGS; ScienCell cat #5352). Culture plastics were coated with Poly-L Lysine (Sigma cat # P4707).
The human primary hepatic stellate cells (hHSC) (ScienCell) were cultured under standard conditions, as described above. For experiments to determine gene expression patterns, hHSC were plated at a density of 7×10^4 cells/well into 24-well plates and were cultured overnight. Next day, culture medium was replaced by serum-free and SteCGS-free medium for an additional 16 hours. Cells were treated with a compound of General Formula (I) in addition to TGFβ1 (1 ng/ml) in a serum-free and SteCGS-free medium for 24 hours.
Total RNA was isolated using Nucleospin® 96 RNA kit (Macherey Nagel) following manufacturer's instructions. 100 ng of total RNA were reverse transcribed in cDNA using M-MLV RT (Moloney Murine Leukemia Virus Reverse Transcriptase) (Invitrogen cat #28025) in presence of RT buffer 1× (Invitrogen), 1 mM DTT (Invitrogen), 0.18 mM dNTPs (Promega), 200 ng pdN6 (Amersham) and 30U of RNase inhibitor (Promega).
Quantitative PCR was then carried out using the CFX96 TOUCH™ Real-Time PCR Detection System (Biorad). Briefly, PCR reactions were performed in 96 well plates on 5 μl of 5× diluted reverse transcription mix using the iQ SYBR Green Supermix kit. The experimental conditions were: 25 μl of volume reaction, 3 mM of MgCl2, and 0.5 μl each of reverse and forward primers (10 pMol).
Expression levels were normalized using the expression of 36B4 gene as reference (sequences SEQ ID NO: 1 and SEQ ID NO: 2 as shown above).
For each gene, the standard curves were drawn by selecting the best points (at least three points) in order to have PCR reaction efficiency close to 100% and a correlation coefficient close to 1. Expression levels were determined using the standard curve equation for both the housekeeping gene and the target gene (taking into account the specific PCR efficiency of each target gene).

For test [2] the test system is unchanged. The test can be described thus: PDGF-BB-induced hHSC proliferation, BrdU incorporation. The test is classed as cell-based. As to conditions: 10 μM, PDGF-BB 10 ng/ml. The protocol:
as §1, §2
hHSC were plated at a density of 1.2×10^4 cells/well into 96-well plates and were cultured overnight at 37° C. and 5% CO2, followed by washing of cells with PBS (Invitrogen cat #14190) and replacing the growth medium with a serum-free and SteCGS-free medium for an additional 24 hours. For PDGF-induced proliferation assay, cells were pre-treated with a compound of General Formula (I) for 1 hour before the addition of PDGF-BB (10 ng/ml; R&D Systems cat #520-BB). Treatments were then continued for additional 20 hours.
Cell proliferation was measured by bromodeoxyuridine (BrdU) incorporation using a BrdU labeling and detection kit (Roche cat #11647229001). BrdU labeling solution was added to cells, followed by incubation for another 4 hours before fixation, addition of nucleases, addition of anti-BrdU-POD and peroxidase substrate. The absorbance at 405 nm (with a reference wavelength at 690 nm) was measured using an ELISA plate reader (Tecan).
On the technique in general: Incorporation of labelled thymidine or its analogues reports DNA synthesis.

Regarding `Cc1cc(C=CC(=O)c2ccc(OCCC3CCCCC3)cc2)cc(C)c1OC(C)(C)C(=O)O` [Cpd 11 WO2005073184, 1-(4-Cyclohexylethyloxyphenyl)-3-(4-carboxydimethylmethyloxy-3,5-dimethylphenyl)prop-2-en-1-one], in test [1], the “Inhibition of the TGFβ1-induced hHSC activation: Col1α1” value (“Inhibition … Col1α1” for short) was −66% **, the “Inhibition of the TGFβ1-induced hHSC activation: Col4α1” value (shortened to “Inhibition … Col4α1”) was −78% *** and the “Inhibition of the TGFβ1-induced hHSC activation: αSMA” value (“Inhibition … αSMA” below) is −92% ***. Besides, the “Inhibition of the PDGF-BB-induced hHSC proliferation: BrdU Incorporation” value (“Inhibition … BrdU Incorporation” below) in test [2] was −6%^.

Turning to `Cc1cc(C=CC(=O)c2ccc(Cl)cc2)cc(C)c1OC(C)(C)C(=O)O` [Cpd 17 WO2004OO5233, 1-[4-chlorophenyl]-3-[3,5-dimethyl-4-carboxydimethylmethyloxyphenyl]prop-2-en-1-one], in test [1], the “Inhibition … Col1α1” value is on record as −29%, the “Inhibition … Col4α1” value was −56% *** and the “Inhibition … αSMA” value is −30% ***. In test [2], the “Inhibition … BrdU Incorporation” value was determined as 6%.

As to `CCCCCCOc1ccc(C(=O)C=Cc2cc(C)c(OC(C)(C)C(=O)O)c(C)c2)cc1` [Cpd 33 WO2004OO5233, 1-[4-hexyloxyphenyl]-3-[3,5-dimethyl-4-carboxydimethylmethyloxyphenyl]prop-2-en-1-one], in test [1], the “Inhibition … Col1α1” value was −58% *, the “Inhibition … Col4α1” value was −73% *** and the “Inhibition … αSMA” value is on record as −71% ***. Further, the “Inhibition … BrdU Incorporation” value in test [2] was 35%^.

Turning to `Cc1cc(C=CC(=O)c2ccc(Oc3ccccc3)cc2)cc(C)c1OC(C)(C)C(=O)O` [Cpd 33 WO2005073184, 1-(4-Phenyloxyphenyl)-3-(4-carboxydimethylmethyloxy-3,5-dimethylphenyl)prop-2-en-1-one], in test [1], the “Inhibition … Col1α1” value is −37%, the “Inhibition … Col4α1” value came out at 12% ^ and the “Inhibition … αSMA” value is −49% ***. The “Inhibition … BrdU Incorporation” value in test [2] is reported as −127% ***.

`Cc1cc(C=CC(=O)c2ccc(Br)cc2)cc(C)c1OC(C)(C)C(=O)O` [Cpd 41 WO2004OO5233, 1-[4-bromophenyl]-3-[3,5-dimethyl-4-carboxydimethylmethyloxyphenyl]prop-2-en-1-one]: in test [1], the “Inhibition … Col1α1” value is given as −28%, the “Inhibition … Col4α1” value is −32% ** and the “Inhibition … αSMA” value was −2%. Besides, in test [2], the “Inhibition … BrdU Incorporation” value is given as −34%.

For `Cc1cc(C=CC(=O)c2ccc(SC(F)(F)F)cc2)cc(C)c1OC(C)(C)C(=O)O` [Cpd 54 US20070032543, 1-[4-trifluoromethylthiophenyl]3-[3,5-dimethyl-4-carboxydimethymethyoxyphenyl]prop-2-en-1-one], in test [1], the “Inhibition … Col1α1” value is −27%, the “Inhibition … Col4α1” value is −40% *** and the “Inhibition … αSMA” value is on record as −57% ***. Moreover, the “Inhibition … BrdU Incorporation” value in test [2] worked out at 12%^.

On to `CCc1cc(C=CC(=O)c2ccc(C(C)C)cc2)cc(CC)c1OC(C)(C)C(=O)O` [Cpd 56 US20070032543, 1-[4-isopropylphenyl]-3-[3,5-diethyl-4-carboxydimethylmethyloxyphenyl]prop-2-en-1-one], for which, in test [1], the “Inhibition … Col1α1” value is −62% **, the “Inhibition … Col4α1” value was −66% *** and the “Inhibition … αSMA” value is −87% ***. In addition, in test [2], the “Inhibition … BrdU Incorporation” value is −127% ***.

Turning to `Cc1cc(C=CC(=O)c2ccc(C(F)(F)F)cc2)cc(C)c1OC(C)(C)C(=O)O` [Cpd 58 US20070032543, 1-[4-trifluoromethylphenyl]-3-[3,5-dimethyl-4-carboxydimethylmethyloxyphenyl]prop-2-en-1-one], in test [1], the “Inhibition … Col1α1” value is listed as 55% *, the “Inhibition … Col4α1” value is reported as −3% and the “Inhibition … αSMA” value stood at 5%^. Moreover, the “Inhibition … BrdU Incorporation” value in test [2] is on record as −5%^.
